Measurements reported in patent US11566007B2, “Ras inhibitors” (Revolution Medicines, Inc., priority 2019, dated 2023).
Read-outs that look alike come from different tables or passages of the source.

Key:
K-Ras G12C = K-Ras G12C (Homo sapiens (Human), UniProt P01116+P62937, G12C); test: Ras-Raf (BRAF RBD) disruption / FRET / MOA assay, KRAS G12C; assay type: biochemical; settings: KRAS G12C; Ras-Raf disruption/FRET/MOA assay; read-out: IC50* KRAS G12C FRET data
How it was run: (§1)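 Ras:RAF disruption was scored as a fall in TR-FRET ratio relative to DMSO. Compound ranged in 3-fold steps over 10 points from 30 μM final; incubation ran 3 h at 25° C, detection antibodies a further 1.5 h. Reported as IC50.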

NRAS G12C = NRAS G12C (Homo sapiens (Human), UniProt P01111+P62937, G12C); test: Ras-Raf (BRAF RBD) disruption / FRET / MOA assay, NRAS G12C; assay type: biochemical; settings: read-out: IC50* NRAS G12C FRET data
Sequence of NRAS G12C (P01111 whole entry G12C): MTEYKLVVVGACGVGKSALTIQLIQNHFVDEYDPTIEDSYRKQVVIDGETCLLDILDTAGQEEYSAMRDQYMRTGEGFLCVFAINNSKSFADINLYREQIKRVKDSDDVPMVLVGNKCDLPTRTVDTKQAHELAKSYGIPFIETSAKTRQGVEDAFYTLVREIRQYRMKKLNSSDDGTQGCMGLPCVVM
Sequence of NRAS G12C (P62937 whole entry): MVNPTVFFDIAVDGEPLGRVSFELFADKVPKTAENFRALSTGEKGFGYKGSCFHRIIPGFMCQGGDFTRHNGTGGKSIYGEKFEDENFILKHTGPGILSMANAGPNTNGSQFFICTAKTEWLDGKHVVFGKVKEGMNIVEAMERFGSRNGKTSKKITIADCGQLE
How it was run: as §1

KRAS G13D = KRAS G13D (Homo sapiens (Human), UniProt P01116+P62937, G13D); test: Ras-Raf (BRAF RBD) disruption / FRET / MOA assay, KRAS G13D; assay type: biochemical; settings: read-out: IC50* KRAS G13D FRET data
Sequence of KRAS G13D (P01116-2 other isoform, or with tags, fused parts or gaps G13D): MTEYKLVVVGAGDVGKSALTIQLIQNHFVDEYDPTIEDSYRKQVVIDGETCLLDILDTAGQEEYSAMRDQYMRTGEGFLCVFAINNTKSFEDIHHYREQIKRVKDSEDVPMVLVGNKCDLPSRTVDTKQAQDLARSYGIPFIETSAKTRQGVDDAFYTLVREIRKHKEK
Sequence of KRAS G13D (P62937 whole entry): as the sequence (P62937 whole entry) above
How it was run: as §1

KRAS G12V = KRAS G12V (Homo sapiens (Human), UniProt P01116+P62937, G12V); test: Ras-Raf (BRAF RBD) disruption / FRET / MOA assay, KRAS G12V; assay type: biochemical; settings: read-out: IC50* KRAS G12V FRET data
Sequence of KRAS G12V (P01116-2 other isoform, or with tags, fused parts or gaps G12V): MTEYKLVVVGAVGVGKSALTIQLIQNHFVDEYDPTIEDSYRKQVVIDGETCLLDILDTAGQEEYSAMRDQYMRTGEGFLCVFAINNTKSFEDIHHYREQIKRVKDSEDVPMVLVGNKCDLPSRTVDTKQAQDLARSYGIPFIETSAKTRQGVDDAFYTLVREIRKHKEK
Sequence of KRAS G12V (P62937 whole entry): as the sequence (P62937 whole entry) above
How it was run: as §1

KRAS G12D = KRAS G12D (Homo sapiens (Human), UniProt P01116+P62937, G12D); test: Ras-Raf (BRAF RBD) disruption / FRET / MOA assay, KRAS G12D; assay type: biochemical; settings: Ras-Raf disruption/FRET/MOA assay; class symbols; read-out: KRAS G12D FRET data IC50
Sequence of KRAS G12D (P01116-2 other isoform, or with tags, fused parts or gaps G12D): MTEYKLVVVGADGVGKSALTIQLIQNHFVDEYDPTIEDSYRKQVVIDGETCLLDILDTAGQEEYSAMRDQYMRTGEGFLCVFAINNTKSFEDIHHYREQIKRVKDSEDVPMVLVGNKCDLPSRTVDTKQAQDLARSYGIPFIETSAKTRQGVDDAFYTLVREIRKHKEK
Sequence of KRAS G12D (P62937 whole entry): as the sequence (P62937 whole entry) above
How it was run: as §1

[1] = tested on: NCI-H358 cells (K-Ras G12C); test: Potency assay: pERK in NCI-H358 cells; assay type: cell-based, human; settings: Homo sapiens, NCI-H358; H358 KRAS G12C; read-out: pERK EC50
How it was run: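 Compounds are dosed as ten 3-fold dilutions from a 10 mM DMSO stock, in duplicate, and left on cells for 4 h at 37 °C, 5% CO2. Phospho-ERK1/2 is then quantified by AlphaLISA SureFire Ultra or In-Cell Western, and IC50 is derived from a 4-parameter sigmoid against log concentration.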

NCI-H358 (K-Ras G12C) = test: CellTiter-Glo cell viability assay, NCI-H358; assay type: cell-based, human; settings: NCI-H358, 5-day treatment, class symbols, read-out: Additional H358 Cell Viability assay data (K-Ras G12C, IC50)
How it was run: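 Luminescent viability readout on day 5 after direct compound addition to plated cells; plates sat ~30 min at room temperature before reading. Values expressed as percent of mean DMSO signal, curves fit with a four-parameter logistic model.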

K-Ras G13C = K-Ras G13C (Homo sapiens (Human), UniProt P01116+P62937, G13C); test: Ras-Raf (BRAF RBD) disruption / FRET / MOA assay, KRAS G13C; assay type: biochemical; settings: KRAS G13C; Ras-Raf disruption/FRET/MOA assay; read-out: IC50* KRAS G13C FRET data
Sequence of K-Ras G13C (P01116-2 other isoform, or with tags, fused parts or gaps G13C): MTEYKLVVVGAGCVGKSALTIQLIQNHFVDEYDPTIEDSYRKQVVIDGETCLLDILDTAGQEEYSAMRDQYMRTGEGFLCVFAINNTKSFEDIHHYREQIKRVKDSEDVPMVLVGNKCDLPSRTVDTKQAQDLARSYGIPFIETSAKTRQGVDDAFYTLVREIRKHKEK
Sequence of K-Ras G13C (P62937 whole entry): as the sequence (P62937 whole entry) above
How it was run: as §1

KRAS G12S = KRAS G12S (Homo sapiens (Human), UniProt P01116+P62937, G12S); test: Ras-Raf (BRAF RBD) disruption / FRET / MOA assay, KRAS G12S; assay type: biochemical; settings: Ras-Raf disruption/FRET/MOA assay; class symbols; read-out: KRAS G12S FRET data IC50
Sequence of KRAS G12S (P01116-2 other isoform, or with tags, fused parts or gaps G12S): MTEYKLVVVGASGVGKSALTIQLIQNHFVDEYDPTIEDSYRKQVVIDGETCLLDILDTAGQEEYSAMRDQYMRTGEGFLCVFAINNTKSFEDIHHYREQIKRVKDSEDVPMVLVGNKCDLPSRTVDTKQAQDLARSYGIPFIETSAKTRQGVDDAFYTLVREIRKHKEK
Sequence of KRAS G12S (P62937 whole entry): as the sequence (P62937 whole entry) above
How it was run: as §1

KRAS WT = KRAS WT (Homo sapiens (Human), UniProt P01116+P62937); test: Ras-Raf (BRAF RBD) disruption / FRET / MOA assay, KRAS WT; assay type: biochemical; settings: read-out: IC50* KRAS WT FRET data
Sequence of KRAS WT (P01116-2 other isoform, or with tags, fused parts or gaps): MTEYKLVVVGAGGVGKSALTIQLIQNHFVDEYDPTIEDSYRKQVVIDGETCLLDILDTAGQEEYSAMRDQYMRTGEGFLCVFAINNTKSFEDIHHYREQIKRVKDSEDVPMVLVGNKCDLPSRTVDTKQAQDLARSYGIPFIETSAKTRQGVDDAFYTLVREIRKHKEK
Sequence of KRAS WT (P62937 whole entry): as the sequence (P62937 whole entry) above
How it was run: as §1

Sequence of K-Ras G12C (P01116-2 other isoform, or with tags, fused parts or gaps G12C): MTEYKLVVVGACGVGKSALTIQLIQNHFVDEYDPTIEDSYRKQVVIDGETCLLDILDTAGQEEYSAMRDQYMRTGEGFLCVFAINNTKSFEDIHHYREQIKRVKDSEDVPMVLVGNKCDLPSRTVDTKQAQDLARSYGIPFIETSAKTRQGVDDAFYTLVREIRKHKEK
Sequence of K-Ras G12C (P62937 whole entry): as the sequence (P62937 whole entry) above

SMILES | IC50 (K-Ras G12C) | IC50 (NRAS G12C) | IC50 (KRAS G13D) | IC50 (KRAS G12V) | IC50 (KRAS G12D) | EC50 [1] | IC50 (NCI-H358 (K-Ras G12C); Homo sapiens, NCI-H358, 120 h) | IC50 (K-Ras G13C) | IC50 (KRAS G12S) | IC50 (KRAS WT) | IC50 (NCI-H358 (K-Ras G12C))
CCn1c(-c2cccnc2[C@H](C)OC)c2c3cc(ccc31)-c1csc(n1)C[C@H](NC(=O)[C@H](C(C)C)N(C)C(=O)N1CCN(C(=O)C#CC(C)(C)N(C)C)CC1)C(=O)N1CCC[C@H](N1)C(=O)OCC(C)(C)C2 (atropisomer, axis not shown) [Example A479] | < 0.01 µM | < 0.01 µM | 0.1 to 1 µM | 0.01 to 0.1 µM | 0.1 to 1 µM | < 5 µM | < 0.01 µM | 0.01 to 0.1 µM | 0.01 to 0.1 µM | 0.01 to 0.1 µM | –
CCn1c(-c2cccnc2[C@H](C)OC)c2c3cc(ccc31)-c1cccc(c1)C[C@H](NC(=O)[C@H](C(C)C)N(C)C(=O)[C@H]1CCN(C(=O)/C=C/C(F)F)C1)C(=O)N1CCC[C@H](N1)C(=O)OCC(C)(C)C2 (atropisomer, axis not shown) [Example A485] | 0.01 to 0.1 µM | 0.01 to 0.1 µM | 1 to 10 µM | 1 to 10 µM | > 10 µM | < 5 µM | < 0.01 µM | 0.1 to 1 µM | 1 to 10 µM | 1 to 10 µM | –
CC#CC(=O)N1CC[C@@H](C(=O)N(C)[C@H](C(=O)N[C@H]2Cc3cccc(c3)-c3ccc4c(c3)c(c(-c3cccnc3[C@H](C)OC)n4CC)CC(C)(C)COC(=O)[C@@H]3CCCN(N3)C2=O)C(C)C)C1 (atropisomer, axis not shown) [Example A487] | 0.1 to 1 µM | 0.1 to 1 µM | 1 to 10 µM | 1 to 10 µM | 1 to 10 µM | < 5 µM | 0.01 to 0.1 µM | 0.1 to 1 µM | 1 to 10 µM | 1 to 10 µM | –
CCn1c(-c2cccnc2[C@H](C)OC)c2c3cc(ccc31)-c1csc(n1)C[C@H](NC(=O)[C@H](C)N(C)C(=O)[C@H]1CCN(C(=O)C#CC(C)(C)N3CCC3)C1)C(=O)N1CCC[C@H](N1)C(=O)OCC(C)(C)C2 (atropisomer, axis not shown) [Example A489] | 0.01 to 0.1 µM | 0.01 to 0.1 µM | 1 to 10 µM | 1 to 10 µM | > 10 µM | < 5 µM | 0.01 to 0.1 µM | 1 to 10 µM | 1 to 10 µM | 1 to 10 µM | –
C=CC(=O)NC1CN(C(=O)N(C)[C@H](C(=O)N[C@H]2Cc3nc(cs3)-c3ccc4c(c3)c(c(-c3cccnc3[C@H](C)OC)n4CC)CC(C)(C)COC(=O)[C@@H]3CCCN(N3)C2=O)C(C)C)C1 (atropisomer, axis not shown) [Example A490] | 0.01 to 0.1 µM | 0.01 to 0.1 µM | 0.1 to 1 µM | 0.1 to 1 µM | 1 to 10 µM | < 5 µM | 0.01 to 0.1 µM | 0.1 to 1 µM | 0.1 to 1 µM | 0.1 to 1 µM | –
C=CC(=O)N1C[C@@H](C)[C@H](C(=O)N(C)[C@H](C(=O)N[C@H]2Cc3cccc(c3)-c3ccc4c(c3)c(c(-c3cccnc3[C@H](C)OC)n4CC)CC(C)(C)COC(=O)[C@@H]3CCCN(N3)C2=O)C(C)C)C1 (atropisomer, axis not shown) [Example A497] | 0.1 to 1 µM | 0.1 to 1 µM | > 10 µM | > 10 µM | > 10 µM | < 5 µM | 0.01 to 0.1 µM | 0.1 to 1 µM | > 10 µM | 1 to 10 µM | –
CCn1c(-c2cccnc2[C@H](C)OC)c2c3cc(ccc31)-c1cccc(c1)C[C@H](NC(=O)[C@H](C(C)C)N(C)C(=O)[C@H]1CCN(C(=O)C#CC3(N(C)C)CN(C)C3)C1)C(=O)N1CCC[C@H](N1)C(=O)OCC(C)(C)C2 (atropisomer, axis not shown) [Example A499] | 0.01 to 0.1 µM | 0.01 to 0.1 µM | 1 to 10 µM | 1 to 10 µM | 1 to 10 µM | < 5 µM | 0.01 to 0.1 µM | 1 to 10 µM | 1 to 10 µM | 1 to 10 µM | –
C=CC(=O)N1CC[C@](F)(C(=O)N(C)[C@H](C(=O)N[C@H]2Cc3cccc(c3)-c3ccc4c(c3)c(c(-c3cccnc3[C@H](C)OC)n4CC)CC(C)(C)COC(=O)[C@@H]3CCCN(N3)C2=O)C(C)C)C1 (atropisomer, axis not shown) [Example A501] | 0.01 to 0.1 µM | 0.01 to 0.1 µM | 1 to 10 µM | 1 to 10 µM | 1 to 10 µM | < 5 µM | 0.01 to 0.1 µM | 0.1 to 1 µM | 1 to 10 µM | 0.1 to 1 µM | –
CC#CC(=O)N1CC[C@]2(CCN([C@H](C(=O)N[C@H]3Cc4nc(cs4)-c4ccc5c(c4)c(c(-c4cccnc4[C@H](C)OC)n5CC)CC(C)(C)COC(=O)[C@@H]4CCCN(N4)C3=O)C(C)C)C2=O)C1 (atropisomer, axis not shown) [Example A511] | 0.1 to 1 µM | 0.1 to 1 µM | 1 to 10 µM | 1 to 10 µM | > 10 µM | < 5 µM | < 0.01 µM | 1 to 10 µM | 1 to 10 µM | 1 to 10 µM | –
C=CC(=O)N1CC[C@H](C(=O)N(C)[C@H](C(=O)N[C@H]2Cc3cccc(c3)-c3ccc4c(c3)c(c(-c3cccnc3[C@@H]3CCCO3)n4CC)CC(C)(C)COC(=O)[C@@H]3CCCN(N3)C2=O)C(C)C)C1 (atropisomer, axis not shown) [Example A512] | 0.1 to 1 µM | 0.1 to 1 µM | > 10 µM | 1 to 10 µM | > 10 µM | < 5 µM | 0.01 to 0.1 µM | 1 to 10 µM | 1 to 10 µM | 1 to 10 µM | –
C=CC(=O)N1CC[C@H](C(=O)N(C)[C@H](C(=O)N[C@H]2Cc3cccc(c3)-c3ccc4c(c3)c(c(-c3cc(C5=CCN(C)CC5)cnc3[C@H](C)OC)n4CC)CC(C)(C)COC(=O)[C@@H]3CCCN(N3)C2=O)C(C)C)C1 (atropisomer, axis not shown) [Example A513] | 0.01 to 0.1 µM | 0.01 to 0.1 µM | 1 to 10 µM | 1 to 10 µM | 1 to 10 µM | < 5 µM | – | 0.1 to 1 µM | 1 to 10 µM | 1 to 10 µM | < 0.01 µM
C=CC(=O)N1CC(F)(C(=O)N(C)[C@H](C(=O)N[C@H]2Cc3cccc(c3)-c3ccc4c(c3)c(c(-c3cccnc3[C@H](C)OC)n4CC)CC(C)(C)COC(=O)[C@@H]3CCCN(N3)C2=O)C(C)C)C1 (atropisomer, axis not shown) [Example A517] | 0.01 to 0.1 µM | 0.01 to 0.1 µM | 1 to 10 µM | 0.1 to 1 µM | 1 to 10 µM | < 5 µM | < 0.01 µM | 0.01 to 0.1 µM | 0.1 to 1 µM | 0.1 to 1 µM | –
C=CC(=O)N1CCC(F)(C(=O)N(C)[C@H](C(=O)N[C@H]2Cc3cccc(c3)-c3ccc4c(c3)c(c(-c3cccnc3[C@H](C)OC)n4CC)CC(C)(C)COC(=O)[C@@H]3CCCN(N3)C2=O)C(C)C)CC1 (atropisomer, axis not shown) [Example A518] | 0.01 to 0.1 µM | 0.01 to 0.1 µM | 0.1 to 1 µM | 0.1 to 1 µM | 1 to 10 µM | < 5 µM | < 0.01 µM | 0.1 to 1 µM | 0.1 to 1 µM | 0.1 to 1 µM | –
C=CC(=O)Nc1cnc(C(=O)N(C)[C@H](C(=O)N[C@H]2Cc3cccc(c3)-c3ccc4c(c3)c(c(-c3cccnc3[C@H](C)OC)n4CC)CC(C)(C)COC(=O)[C@@H]3CCCN(N3)C2=O)C(C)C)n1C (atropisomer, axis not shown) [Example A524] | 0.1 to 1 µM | 0.1 to 1 µM | > 10 µM | > 10 µM | > 10 µM | < 5 µM | 0.01 to 0.1 µM | 0.1 to 1 µM | > 10 µM | > 10 µM | –
C#CCn1c(-c2cccnc2[C@H](C)OC)c2c3cc(ccc31)-c1cccc(c1)C[C@H](NC(=O)[C@H](C(C)C)N(C)C(=O)[C@H]1CCN(C(=O)C=C)C1)C(=O)N1CCC[C@H](N1)C(=O)OCC(C)(C)C2 (atropisomer, axis not shown) [Example A530] | 0.1 to 1 µM | 0.1 to 1 µM | > 10 µM | 1 to 10 µM | > 10 µM | < 5 µM | 0.01 to 0.1 µM | 1 to 10 µM | 1 to 10 µM | 1 to 10 µM | –
